Data set [1] relates to CYP1A1. Description: Cytochrome P450 (CYP) gene induction in human cryopreserved hepatocytes, CYP1A1 mRNA. The data set is classed as in vitro ADME. The conditions noted are these: for CYP1A1 mRNA induction potency, % of the positive control (100%): 48-hr exposure. How it is done: (§1) Human cryopreserved hepatocytes purchased from In Vitro Technology were quickly thawed at 37° C. After ice-cold William's E (WE) medium supplemented with 10% FCS, penicillin (100 U/mL), streptomycin (100 μg/mL) and glutamine (2 mM) (WE medium) was gradually added to hepatocytes, the cells were centrifuged at 500 rpm for 5 min at 4° C. The supernatant was removed and the cells were resuspended in WE medium to obtain 5×10^5 cells/mL. The cells were plated into collagen-coated 48-well plates (1×10^5 cells/cm^2) and cultured at 37° C. and 5% CO2 for about 24 hr.
(§2) Medium was replaced with Hepato-STIM (trademark, BD Biosciences) supplemented with EGF, penicillin (100 U/mL), streptomycin (100 μg/mL) and glutamine (2 mM) (HS medium) and the cells were cultured for about 24 hr. At about 48 hr of culture after seeding, the cells were treated with the test compounds and β-naphtoflavone (β-NF, positive control for human CYP1A1 and CYP1A2, SIGMA) prepared by HS medium for about 48 hr. Medium was changed daily. The final concentration of β-NF was set to 10 μM. All compounds were dissolved in dimethylsulfoxide (DMSO, Wako), resulting in a final vehicle concentration of 0.1% (v/v). To the control cells, HS medium containing 0.1% DMSO was added.
(§3) After 48-hr exposure, cells were washed once using PBS, and total RNA was purified using Qiagen RNeasy Mini Kit (Qiagen) according to the manufacturer's instruction. Purified total RNA was then used as template for first strand cDNA synthesis. For reverse transcription (RT) reaction, Oligo dT was employed. The RT reaction was carried using TaqMan Reverse Transcription Reagents (Applied Biosystems) at 25° C. for 10 min followed by 60-min reaction at 48° C., and then the enzyme was inactivated at 95° C. for 5 min in Gene Amp PCR System 9700. The resulting cDNA was subjected to polymerase chain reaction (PCR) in ABI7700 Sequence Detection System (Applied Biosystems). For the mRNA analyses of CYP1A1 and GAPDH, SYBR Green PCR Core Reagents kit (Applied Biosystems) was used, and CYP1A2 mRNA was quantified using TaqMan PCR Core Reagents kit (Applied Biosystems).
(§4) The amount of mRNA of CYP1A1 or CYP1A2 was divided by that of GAPDH. Then, the ratio (fold) of the values obtained in test compounds (X) and positive control (P) against that in control was calculated. The induction potency of test compound (%) was obtained by following equation: Induction potency of test compound (%)=100×(X−1)/(P−1) <Results>

Data set [2] has as its system CYP1A2. Nature of the data set: Cytochrome P450 (CYP) gene induction in human cryopreserved hepatocytes, CYP1A2 mRNA. The data set is classed as in vitro ADME. The conditions noted are these: for CYP1A2 mRNA induction potency, % of the positive control (100%): 48-hr exposure. As for the experimental part:
as §1, §2, §3, §4

In data set [3] the test system is Gastric Acid Secretion in Rats. Description: Inhibitory effects on gastric acid secretion in pylorus-ligated, histamine-stimulated rats. The note with it: male SD rats, 10 mg/kg into the duodenum, histamine 20 mg/kg subcutaneously, eight hours after administration. The data set is classed as in vivo, rat. As for the experimental part: Seven-week-old male SD rats fasted from the day before experiments were used. The rats were subjected to celiotomy along the median line under ether anesthesia, and the pylorus was ligated. Test compounds were dissolved or suspended in 0.5% methyl-cellulose solution (solvent) and prepared the concentration of 5 mg/ml. […] Then the abdomen was sutured. Eight hours after the administration of solvent or test compound, rat was sacrificed and stomach was isolated for the measurement of the volume of gastric juice. After the volume of gastric juice was determined, the acid concentration was measured using 0.25 ml of gastric juice by titration against 0.04 mol/l NaOH solution to pH 7.0. The acid output was calculated as (volume of gastric juice)×(acid concentration). The inhibition rate (%) was calculated according to the formula shown below. The number of animals of each experimental group is four. Inhibition rate (%)=100×(A−B)/A • A: acid output in solvent administered group • B: acid output in test compound administered group

Where [4] appears, read: 10 μM, normalised to GAPDH, vs 0.1% DMSO control.

For the compound `COc1ccnc(C[S+]([O-])c2nc3cc(C)c(OC)nc3[n-]2)c1C.[Na+]` (stereo not drawn) [Example 1, 5-Methoxy-2-(((4-methoxy-3-methyl-2-pyridinyl)methyl)sulfinyl)-6-methyl-3H-imidazo[4,5-b]pyridineSodium salt], the “CYP1A1 mRNA induction potency, % of the positive control (100%)” value in data set [1] (0.3 μM) is listed as 2.03%; in data set [1] (1 μM) it was 8.02%; in data set [1] (3 μM) it was 11.27%; in data set [1] (10 μM) it was 18.46%. Further, the “CYP1A2 mRNA induction potency, % of the positive control (100%)” value stood at 8.36% in data set [2] (0.3 μM), 12.16% in data set [2] (1 μM), 11.78% in data set [2] (3 μM) and 29.18% in data set [2] (10 μM). Also, in data set [3], the “Inhibition rate(%) of acid output” value is listed as 79%.

In the case of `COc1ccnc(C[S+]([O-])c2nc3cc(C)c(OCC(F)(F)F)nc3[n-]2)c1C.[Na+]` (stereo not drawn) [Example 2, 2-(((4-Methoxy-3-methyl-2-pyridinyl)methyl]sulfinyl)-6-methyl-5-(2,2,2-trifluoroethoxy)-3H-imidazo[4,5-b]pyridine Sodium salt], the “Inhibition rate(%) of acid output” value in data set [3] was 86%.

For `COc1ccnc(C[S+]([O-])c2nc3cc(C)c(OCC(F)F)nc3[n-]2)c1C.[Na+]` (stereo not drawn) [Example 3, 5-(2,2-Difluoroethoxy)-2-(((4-methoxy-3-methyl-2-pyridinyl)methyl)sulfinyl)-6-methyl-3H-imidazo[4,5-b]pyridine Sodium salt], the “Inhibition rate(%) of acid output” value in data set [3] turned out to be 85%.

Take `O=c1cc(-c2ccccc2)oc2ccc3ccccc3c12` [βNF, β-naphtoflavone, reference compound]: in data set [1] (10 μM), the “CYP1A1 mRNA induction potency, % of the positive control (100%)” value is recorded as 100%. In addition, the “CYP1A1 mRNA fold induction as compared with control (figures in parentheses)” value in data set [1] (setting [4]) amounted to 79.97 fold. Moreover, the “CYP1A2 mRNA induction potency, % of the positive control (100%)” value in data set [2] (10 μM) worked out at 100%. Also, the “CYP1A2 mRNA fold induction as compared with control (figures in parentheses)” value in data set [2] (setting [4]) was found to be 14.16 fold.

Source of the values: patent US7781452B2, “Imidazopyridine compound” (Eisai R&D Management Co., Ltd., priority 2004, dated 2010).
